From ChEMBL document CHEMBL1201862, “PubChem BioAssay data set” (2004)
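Following 48 hours of exposure in 96-well plates, responses at five concentrations were used to interpolate endpoints linearly. GI50 = concentration required for 50% inhibition of growth.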 Active and inactive are the calls of the source. Cut-off read from the data, not from the text of the source: active = GI50 up to about 1.1 µM and inactive = higher.

Experiments:
Experiment in all cases: growth of human tumour cells (NCI), 48 h
[1] = system: M19-MEL
[2] = system: M14
[3] = system: NCI-H23
[4] = system: XF498
[5] = system: ACHN
[6] = system: NCI-H522
[7] = system: DMS-273
[8] = system: HOP-18
[9] = system: SNB-78
[10] = system: SK-OV-3
[11] = system: CCRF-CEM
[12] = system: OVCAR-4
[13] = system: U-251
[14] = system: CAKI-1
[15] = system: NCI/ADR-RES

| Structure (SMILES) | GI50 [1] | GI50 [2] | GI50 [3] | GI50 [4] | GI50 [5] | GI50 [6] | GI50 [7] | GI50 [8] | GI50 [9] | GI50 [10] | GI50 [11] | GI50 [12] | GI50 [13] | GI50 [14] | GI50 [15] |
| --- | --- | --- | --- | --- | --- | --- | --- | --- | --- | --- | --- | --- | --- | --- | --- |
| CCOc1cccc2[s+]snc12 | 56 µM (inactive) | > 100 µM (inactive) | > 10 µM (inactive) | 25.2 µM (inactive) | > 100 µM (inactive) | 27.8 µM (inactive) | > 100 µM (inactive) | 77.8 µM (inactive) | 49.3 µM (inactive) | > 100 µM (inactive) | 62.8 µM (inactive) | 58.5 µM (inactive) | 33.8 µM (inactive) | > 100 µM (inactive) |  |
| C/C(=N\NC(=S)Nc1ccc(C(=O)O)cc1)c1ccccn1 | 20.1 µM (inactive) | 15.1 µM (inactive) | 36.9 µM (inactive) | 26.4 µM (inactive) | 16.7 µM (inactive) |  | 24 µM (inactive) | 24.7 µM (inactive) | > 100 µM (inactive) |  | 17.4 µM (inactive) | 15.1 µM (inactive) | 24.2 µM (inactive) | 29.5 µM (inactive) |  |
| N/C(=N/O)N/N=C\c1cc(Cl)cc(Cl)c1O | 4.19 µM (inactive) |  | 1.54 µM (inactive) | 0.708 µM (active) |  | 3.47 µM (inactive) | 0.347 µM (active) | 10.7 µM (inactive) | 21.1 µM (inactive) | 4.91 µM (inactive) | 0.193 µM (active) | 8.04 µM (inactive) | 2.87 µM (inactive) | 1.09 µM (active) | 1.32 µM (inactive) |
| CCOC(=O)c1cc(Cl)ccc1OC(N)=O | > 100 µM (inactive) |  | > 100 µM (inactive) | > 100 µM (inactive) |  |  | > 100 µM (inactive) | > 96.4 µM (inactive) | > 100 µM (inactive) | > 100 µM (inactive) | > 100 µM (inactive) | > 100 µM (inactive) | > 100 µM (inactive) | > 100 µM (inactive) | > 100 µM (inactive) |
| CCC1N2CCCCC2[C@@H]2c3[nH]c4ccccc4c3CCN12 (stereo partly specified) | > 100 µM (inactive) | > 100 µM (inactive) | > 100 µM (inactive) | > 100 µM (inactive) | > 100 µM (inactive) | > 100 µM (inactive) | > 100 µM (inactive) | > 100 µM (inactive) | > 100 µM (inactive) | > 100 µM (inactive) | > 100 µM (inactive) | > 100 µM (inactive) | > 100 µM (inactive) | > 100 µM (inactive) |  |
| S=P1(Oc2ccccc2)NNP2(=NP(N3CC3)(N3CC3)=NP(N3CC3)(N3CC3)=N2)NN1 (stereo unspecified) | > 100 µM (inactive) |  | 41.9 µM (inactive) | > 100 µM (inactive) | > 100 µM (inactive) | > 100 µM (inactive) | 76.4 µM (inactive) | > 100 µM (inactive) |  | > 100 µM (inactive) | 38.9 µM (inactive) | > 100 µM (inactive) | > 100 µM (inactive) | > 100 µM (inactive) |  |
| c1ccc(C2N=C(c3ccccn3)C(c3ccccn3)=NC2c2ccccc2)cc1 (stereo unspecified) | > 100 µM (inactive) | > 100 µM (inactive) | > 100 µM (inactive) | > 100 µM (inactive) | > 100 µM (inactive) | > 100 µM (inactive) | > 100 µM (inactive) | 84.7 µM (inactive) | > 100 µM (inactive) | > 100 µM (inactive) | > 100 µM (inactive) | > 100 µM (inactive) | > 100 µM (inactive) | > 100 µM (inactive) |  |
| CC(C)(C1=NC(C(C)(C)C)CO1)C1=N[C@@H](C(C)(C)C)CO1 (stereo partly specified) | > 100 µM (inactive) | > 100 µM (inactive) | > 100 µM (inactive) | > 100 µM (inactive) | > 100 µM (inactive) | > 100 µM (inactive) | > 100 µM (inactive) | > 100 µM (inactive) |  | > 100 µM (inactive) | > 100 µM (inactive) | > 100 µM (inactive) | > 100 µM (inactive) |  |  |
| O=C1Cc2ccccc2N1c1c(Cl)cccc1Cl | 40.6 µM (inactive) | 71 µM (inactive) | 52 µM (inactive) | 21.6 µM (inactive) | 70.1 µM (inactive) | 24.6 µM (inactive) |  | > 100 µM (inactive) | 74.5 µM (inactive) | 0.424 µM (active) | 32.9 µM (inactive) | 48 µM (inactive) | 63.7 µM (inactive) | 61.1 µM (inactive) |  |
